In patent EP0489581A2, “Cosmetic composition” (UNILEVER PLC, priority 1990, dated 1992):

Test system: skin surface
Test: Body shampoo streak of 0.1% EtNic against placebo on the other side (erythema meter, Cyclops pyrometer)
Assay type: in vivo, human
Parameters: ERYTHEMA METER AN / ERYTHEMA METER FA / ERYTHEMA METER UA / ERYTHEMA METER BR / ERYTHEMA METER SH / ERYTHEMA METER WA / ERYTHEMA METER HI / ERYTHEMA METER TH / ERYTHEMA METER CA: scale not given here; TEMPERATURE CHANGE FA / TEMPERATURE CHANGE UA / TEMPERATURE CHANGE BR / TEMPERATURE CHANGE SH / TEMPERATURE CHANGE WA / TEMPERATURE CHANGE HI / TEMPERATURE CHANGE TH / TEMPERATURE CHANGE CA / TEMPERATURE CHANGE AN: unit not given here
Conditions: for ERYTHEMA METER AN / TEMPERATURE CHANGE AN / ERYTHEMA METER CA / TEMPERATURE CHANGE CA / ERYTHEMA METER HI / TEMPERATURE CHANGE HI / ERYTHEMA METER FA / TEMPERATURE CHANGE FA / ERYTHEMA METER BR / TEMPERATURE CHANGE BR / ERYTHEMA METER SH / TEMPERATURE CHANGE SH / ERYTHEMA METER TH / TEMPERATURE CHANGE TH / ERYTHEMA METER UA / TEMPERATURE CHANGE UA / ERYTHEMA METER WA / TEMPERATURE CHANGE WA: 0.1% EtNic; for ERYTHEMA METER AN / TEMPERATURE CHANGE AN: ankle; for ERYTHEMA METER CA / TEMPERATURE CHANGE CA: calf; for ERYTHEMA METER HI / TEMPERATURE CHANGE HI: hip; for ERYTHEMA METER FA / TEMPERATURE CHANGE FA: mid forearm; for ERYTHEMA METER BR / TEMPERATURE CHANGE BR: side breast; for ERYTHEMA METER SH / TEMPERATURE CHANGE SH: side shoulder; for ERYTHEMA METER TH / TEMPERATURE CHANGE TH: thigh; for ERYTHEMA METER UA / TEMPERATURE CHANGE UA: upper arm; for ERYTHEMA METER WA / TEMPERATURE CHANGE WA: waist
Experimental: A subject showered in the conventional way but without shampoo or soap. The redness and temperature of the skin surface was measured at symmetrical points from the mid forearm down the body to the ankle, after the excess water had been removed by light towelling. The person re-showered and between 2 and 3 grammes of shampoo according to Example 5 was streaked down one side of the body in a broad line. The body shampoo was rubbed into a lather periodically during the two minutes. A placebo shampoo of corresponding composition was applied first to one side of the body and then the time started when the shampoo with the ethyl nicotinate was applied to the other side. […] The redness was measured with the erythema meter whilst the temperature was measured with a Cyclops pyrometer at ten sites on each side. The time was taken as the mean of the two times for each pair of sites. The time course was followed for about 50 minutes. After about 210 minutes the experiment was repeated, but treating the opposite sides. The result shown below are the differences in redness and temperature of the corresponding sites.

[1] = left hand side, mean time 0.00 (baseline), difference of corresponding sites
[2] = left hand side, mean time 17.56, difference of corresponding sites
[3] = left hand side, mean time 31.56, difference of corresponding sites
[4] = left hand side, mean time 44.89, difference of corresponding sites
[5] = left hand side, mean time 59.61, difference of corresponding sites
[6] = left hand side, mean time 77.21, difference of corresponding sites
[7] = left hand side, time 10.00, mean time 10.37, difference of corresponding sites
[8] = left hand side, time 25.00, mean time 24.98, difference of corresponding sites
[9] = left hand side, time 38.00, mean time 38.30, difference of corresponding sites
[10] = left hand side, time 53.00, mean time 52.87, difference of corresponding sites
[11] = right hand side, mean time 0.00 (baseline), difference of corresponding sites
[12] = right hand side, time 10.00, mean time 9.79, difference of corresponding sites
[13] = right hand side, time 26.00, mean time 26.13, difference of corresponding sites
[14] = right hand side, time 42.00, mean time 42.25, difference of corresponding sites
[15] = right hand side, time 210.00, mean time 209.78, difference of corresponding sites
[16] = all the sites, shampoo according to Example 5, two minutes

## CCOC(=O)c1cccnc1 [EtNic, ethyl nicotinate]
[1]
  ERYTHEMA METER AN: -0.53
  TEMPERATURE CHANGE AN: -0.10
  ERYTHEMA METER CA: -0.26
  TEMPERATURE CHANGE CA: -0.30
  ERYTHEMA METER HI: 0.03
  TEMPERATURE CHANGE HI: 0.10
  ERYTHEMA METER FA: -0.65
  TEMPERATURE CHANGE FA: -0.20
  ERYTHEMA METER BR: -0.12
  TEMPERATURE CHANGE BR: -1.10
  ERYTHEMA METER SH: 0.00
  TEMPERATURE CHANGE SH: 0.40
  ERYTHEMA METER TH: -0.23
  TEMPERATURE CHANGE TH: 0.10
  ERYTHEMA METER UA: -0.28
  TEMPERATURE CHANGE UA: 0.00
  ERYTHEMA METER WA: 0.03
  TEMPERATURE CHANGE WA: -0.30
[2]
  TEMPERATURE CHANGE AN: 0.30
  TEMPERATURE CHANGE CA: 2.90
  TEMPERATURE CHANGE HI: 1.10
  TEMPERATURE CHANGE FA: -0.50
  TEMPERATURE CHANGE BR: 4.80
  TEMPERATURE CHANGE SH: 3.40
  TEMPERATURE CHANGE TH: 3.70
  TEMPERATURE CHANGE UA: 3.10
  TEMPERATURE CHANGE WA: 4.80
[3]
  TEMPERATURE CHANGE AN: -0.20
  TEMPERATURE CHANGE CA: 2.30
  TEMPERATURE CHANGE HI: 3.70
  TEMPERATURE CHANGE FA: 0.20
  TEMPERATURE CHANGE BR: 4.80
  TEMPERATURE CHANGE SH: 4.50
  TEMPERATURE CHANGE TH: 3.20
  TEMPERATURE CHANGE UA: 3.60
  TEMPERATURE CHANGE WA: 6.80
[4]
  TEMPERATURE CHANGE AN: 0.70
  TEMPERATURE CHANGE CA: 1.10
  TEMPERATURE CHANGE HI: 3.30
  TEMPERATURE CHANGE FA: -0.30
  TEMPERATURE CHANGE BR: 4.30
  TEMPERATURE CHANGE SH: 3.30
  TEMPERATURE CHANGE TH: 2.50
  TEMPERATURE CHANGE UA: 2.70
  TEMPERATURE CHANGE WA: 6.40
[5]
  TEMPERATURE CHANGE AN: 0.80
  TEMPERATURE CHANGE CA: 0.90
  TEMPERATURE CHANGE HI: 2.90
  TEMPERATURE CHANGE FA: 0.20
  TEMPERATURE CHANGE BR: 1.70
  TEMPERATURE CHANGE SH: 1.50
  TEMPERATURE CHANGE TH: 1.90
  TEMPERATURE CHANGE UA: 1.80
  TEMPERATURE CHANGE WA: 5.00
[6]
  TEMPERATURE CHANGE AN: 0.30
  TEMPERATURE CHANGE CA: 0.50
  TEMPERATURE CHANGE HI: 2.20
  TEMPERATURE CHANGE FA: 0.00
  TEMPERATURE CHANGE BR: 1.00
  TEMPERATURE CHANGE SH: 0.30
  TEMPERATURE CHANGE TH: 1.30
  TEMPERATURE CHANGE UA: 1.40
  TEMPERATURE CHANGE WA: 3.60
[7]
  ERYTHEMA METER AN: 0.29
  ERYTHEMA METER CA: 0.26
  ERYTHEMA METER HI: 0.74
  ERYTHEMA METER FA: 0.39
  ERYTHEMA METER BR: 1.09
  ERYTHEMA METER SH: 1.08
  ERYTHEMA METER TH: 0.47
  ERYTHEMA METER UA: 1.35
  ERYTHEMA METER WA: 0.66
[8]
  ERYTHEMA METER AN: 0.56
  ERYTHEMA METER CA: 0.41
  ERYTHEMA METER HI: 0.31
  ERYTHEMA METER FA: 0.00
  ERYTHEMA METER BR: 0.71
  ERYTHEMA METER SH: 1.06
  ERYTHEMA METER TH: 0.43
  ERYTHEMA METER UA: 0.67
  ERYTHEMA METER WA: 0.44
[9]
  ERYTHEMA METER AN: -0.43
  ERYTHEMA METER CA: -0.17
  ERYTHEMA METER HI: 0.12
  ERYTHEMA METER FA: -0.06
  ERYTHEMA METER BR: 0.91
  ERYTHEMA METER SH: 0.77
  ERYTHEMA METER TH: 0.28
  ERYTHEMA METER UA: 0.82
  ERYTHEMA METER WA: 0.79
[10]
  ERYTHEMA METER AN: -0.25
  ERYTHEMA METER CA: -0.12
  ERYTHEMA METER HI: 0.13
  ERYTHEMA METER FA: 0.05
  ERYTHEMA METER BR: 0.41
  ERYTHEMA METER SH: 0.38
  ERYTHEMA METER TH: 0.17
  ERYTHEMA METER UA: 0.23
  ERYTHEMA METER WA: 0.05
[11]
  ERYTHEMA METER AN: 0.08
  ERYTHEMA METER CA: 0.06
  ERYTHEMA METER HI: 0.44
  ERYTHEMA METER FA: 0.20
  ERYTHEMA METER BR: 0.06
  ERYTHEMA METER SH: 0.12
  ERYTHEMA METER TH: 0.07
  ERYTHEMA METER UA: 0.38
  ERYTHEMA METER WA: 0.06
[12]
  ERYTHEMA METER AN: 0.62
  ERYTHEMA METER CA: 0.87
  ERYTHEMA METER HI: 0.92
  ERYTHEMA METER FA: -0.28
  ERYTHEMA METER BR: 1.20
  ERYTHEMA METER SH: 1.81
  ERYTHEMA METER TH: 0.87
  ERYTHEMA METER UA: 0.89
  ERYTHEMA METER WA: 1.16
[13]
  ERYTHEMA METER AN: 0.57
  ERYTHEMA METER CA: 0.75
  ERYTHEMA METER HI: 0.55
  ERYTHEMA METER FA: 0.51
  ERYTHEMA METER BR: 1.48
  ERYTHEMA METER SH: 1.61
  ERYTHEMA METER TH: 0.43
  ERYTHEMA METER UA: 1.40
  ERYTHEMA METER WA: 1.09
[14]
  ERYTHEMA METER AN: 0.57
  ERYTHEMA METER CA: 0.58
  ERYTHEMA METER HI: 0.50
  ERYTHEMA METER FA: 0.41
  ERYTHEMA METER BR: 0.72
  ERYTHEMA METER SH: 0.81
  ERYTHEMA METER TH: 0.04
  ERYTHEMA METER UA: 0.74
  ERYTHEMA METER WA: 0.70
[15]
  ERYTHEMA METER AN: 0.53
  ERYTHEMA METER CA: 0.26
  ERYTHEMA METER HI: -0.03
  ERYTHEMA METER FA: 0.65
  ERYTHEMA METER BR: 0.12
  ERYTHEMA METER SH: 0.00
  ERYTHEMA METER TH: 0.23
  ERYTHEMA METER UA: 0.28
  ERYTHEMA METER WA: -0.03
[16]
  redness: increase
  temperature: increase
At the waist
  maximum temperature difference: seven
